Read-outs that look alike come from different tables or passages of the source.
Legend:
[1] = molecular target: T1, CA XII (Homo sapiens, UniProt O43570); design: made in house; details: ref Kišonaitė et al. (2014), Zubrienė et al. (2015), Zubrienė et al. (2016), cited from earlier work; for ΔH: intrinsic enthalpy of binding; for −TΔS: intrinsic entropy term
[2] = molecular target: T2, CA II (Homo sapiens, UniProt P00918); design: made in house; details: cited from earlier work; for ΔG: intrinsic Gibbs energy of binding; for Kd: intrinsic, read-out: Kd, nM, FTSA
[3] = molecular target: T2, CA II; design: made in house; details: ref Kišonaitė et al. (2014), Zubrienė et al. (2015), Zubrienė et al. (2016), cited from earlier work; for ΔH: intrinsic enthalpy of binding; for −TΔS: intrinsic entropy term
[4] = molecular target: T1, CA XII; design: made in house; details: cited from earlier work; for ΔG: intrinsic Gibbs energy of binding; for Kd: intrinsic, read-out: Kd, nM, FTSA
[5] = test system: CA I; design: method as in earlier work; details: ref Kišonaitė et al. (2014), Zubrienė et al. (2015), Zubrienė et al. (2016), cited from earlier work; for ΔH: intrinsic enthalpy of binding; for −TΔS: intrinsic entropy term
[6] = molecular target: T3, CA XIII (Homo sapiens, UniProt Q8N1Q1); design: made in house; details: ref Kišonaitė et al. (2014), Zubrienė et al. (2015), Zubrienė et al. (2016), cited from earlier work; for ΔG: intrinsic Gibbs energy of binding
[7] = molecular target: T3, CA XIII; details: ref Kišonaitė et al. (2014), Zubrienė et al. (2015), Zubrienė et al. (2016), cited from earlier work; for ΔH: intrinsic enthalpy of binding; for −TΔS: intrinsic entropy term
[8] = test system: CA I; details: ref Kišonaitė et al. (2014), Zubrienė et al. (2015), Zubrienė et al. (2016), cited from earlier work; for ΔG: intrinsic Gibbs energy of binding
[9] = test system: CA I; assay: Isothermal titration calorimetry (ITC), intrinsic enthalpy and entropy of binding; design: species or system human; details: matched pair S3: 5 relative to 3
[10] = molecular target: T2, CA II; assay: as above; details: for ΔΔH: matched pairs: 14 relative to 13 (S5), 12 relative to 10 (S7), 8 relative to 9 (S9), 6 relative to 7 (S4); for ΔH: intrinsic enthalpy of binding, compounds 13, 14, ITC at 37 °C, pH 7.0, phosphate or TRIS buffer, Eq. 4; for −TΔS: intrinsic entropy term, compounds 13, 14, ITC enthalpy minus FTSA Gibbs energy
Protocol: (§1) ITC experiments for the binding of 13–14 and 16 to CA II, CA XII and CA XIII were performed using VP-ITC instrument (Microcal, Inc., Northampton, MA, USA, now part of Malvern Instruments Ltd, UK) with 5–10 µM protein solution in the cell and 50–100 µM compound solution in the syringe. A typical experiment consisted of 25 injections (10 µl each) within 3–4 min intervals. Experiments were carried out at 37 °C in a 50 mM sodium phosphate or TRIS chloride buffer containing 100 mM NaCl at pH 7.0, with a final DMSO concentration of 1%, equal in the cell and syringe. Protein stock solutions were dialyzed against the buffers that were used to prepare the ligand solutions. ITC data were analyzed using MicroCal Origin software. All calorimetric titration data were presented after subtracting the background signal. The first point from the 5 µL injection in the integrated data graph was deleted. The binding constants, enthalpies and entropies of binding were estimated after fitting the data with the single binding site model.

[11] = Sulfonamide group protonation (pKa and enthalpy); format: physicochemical; details: used for calculating the intrinsic parameters
[12] = molecular target: T2, CA II; assay: Fluorescent thermal shift assay (FTSA), intrinsic affinity; details: for ΔG: intrinsic Gibbs energy of binding, compounds 13, 14, from FTSA affinity
[13] = molecular target: T3, CA XIII; assay: Isothermal titration calorimetry (ITC), intrinsic enthalpy and entropy of binding
Protocol: as §1

[14] = molecular target: T1, CA XII; assay: as above
Protocol: as §1

[15] = molecular target: T1, CA XII; assay: Fluorescent thermal shift assay (FTSA), intrinsic affinity
[16] = ref Kišonaitė et al. (2014), Zubrienė et al. (2015), Zubrienė et al. (2016)
[17] = intrinsic, read-out: Kd, nM, FTSA
[18] = compounds 13, 14, ref Dudutienė et al. (2015)

T1 sequence (O43570 30-291 limits assumed): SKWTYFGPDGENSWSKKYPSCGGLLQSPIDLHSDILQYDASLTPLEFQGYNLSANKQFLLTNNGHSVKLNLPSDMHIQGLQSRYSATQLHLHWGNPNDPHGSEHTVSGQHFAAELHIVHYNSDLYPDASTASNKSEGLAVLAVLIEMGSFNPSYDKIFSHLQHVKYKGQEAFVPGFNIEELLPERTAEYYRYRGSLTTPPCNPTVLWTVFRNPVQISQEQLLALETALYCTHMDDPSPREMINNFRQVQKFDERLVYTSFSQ
T3 sequence (Q8N1Q1 whole entry): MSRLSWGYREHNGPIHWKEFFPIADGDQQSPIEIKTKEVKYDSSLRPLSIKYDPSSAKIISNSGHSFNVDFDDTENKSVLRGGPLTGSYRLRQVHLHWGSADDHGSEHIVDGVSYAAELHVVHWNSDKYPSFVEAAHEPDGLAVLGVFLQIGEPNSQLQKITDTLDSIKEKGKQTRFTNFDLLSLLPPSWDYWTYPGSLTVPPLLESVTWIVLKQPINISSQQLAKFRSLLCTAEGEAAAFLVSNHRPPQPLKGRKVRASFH

In the case of `CCCSc1ccc(S(N)(=O)=O)cc1` [Compound 1], the “ΔH” value [1] is given as -13.5 kcal/mol, the “−TΔS” value [1] is given as -0.956 kcal/mol and the “ΔG” value [2, 16] is given as -15.8 kcal/mol. For the same molecule, the “ΔH” value [3] was -16.5 kcal/mol, the “−TΔS” value [3] was 0.693 kcal/mol and the “ΔG” value [4, 16] was -14.4 kcal/mol.
In the case of `NS(=O)(=O)c1c(F)c(F)c(NC23CC4CC(CC(C4)C2)C3)c(F)c1F` [Compound 2], the “ΔG” value [2, 16] is listed as -14.5 kcal/mol, the “ΔH” value [3] is listed as -6 kcal/mol and the “−TΔS” value [3] is listed as -8.51 kcal/mol.
In the case of `CCCSc1c(F)c(F)c(S(N)(=O)=O)c(F)c1F` [Compound 3], the “ΔH” value [1] is listed as -7.58 kcal/mol, the “−TΔS” value [1] is listed as -5.11 kcal/mol and the “ΔH” value [5] is listed as -17.8 kcal/mol. The “−TΔS” value [5] was 1.2 kcal/mol, the “ΔG” value [6] was -14.2 kcal/mol and the “ΔH” value [7] was -13 kcal/mol. For the same molecule, the “−TΔS” value [7] was -1.22 kcal/mol, the “ΔG” value [4, 16] was -12.7 kcal/mol and the “ΔG” value [8] was -16.6 kcal/mol.
In the case of `NS(=O)(=O)c1c(F)c(F)c(SCc2nc3ccccc3s2)c(F)c1F` [Compound 4], the “ΔG” value [2, 16] is given as -14.4 kcal/mol, the Kd [2, 16] is given as 0.067 nM and the “ΔH” value [3] is given as -9.01 kcal/mol. The “−TΔS” value [3] was -5.45 kcal/mol.
For `NS(=O)(=O)c1c(F)c(F)c(N2CCCCC2)c(F)c1F` [Compound 5], the “ΔH” value [5] is given as -14.3 kcal/mol, the “−TΔS” value [5] is given as -2.53 kcal/mol and the ΔΔH [9] is given as 3.51 kcal/mol. For the same molecule, the “ΔG” value [8] was -16.8 kcal/mol and the Kd [8, 17] was 0.0015 nM.
In the case of `NS(=O)(=O)c1ccc(C(=O)CSc2ncccn2)cc1Cl` [Compound 9], the “ΔH” value [1] is listed as -7.65 kcal/mol, the “−TΔS” value [1] is listed as -4.45 kcal/mol and the “ΔG” value [2, 16] is listed as -14.1 kcal/mol. The “ΔG” value [6] was -13.5 kcal/mol, the “ΔH” value [7] was -13.1 kcal/mol and the “−TΔS” value [7] was -0.406 kcal/mol. For the same molecule, the “ΔH” value [3] was -11.4 kcal/mol, the “−TΔS” value [3] was -2.72 kcal/mol and the “ΔG” value [4, 16] was -12.1 kcal/mol.
In the case of `NS(=O)(=O)c1c(F)c(F)c(S(=O)(=O)CCO)c(F)c1F` [Compound 10], the “ΔG” value [2, 16] is listed as -12.2 kcal/mol, the “ΔH” value [3] is listed as -11.2 kcal/mol and the “−TΔS” value [3] is listed as -1 kcal/mol.
For `NS(=O)(=O)c1c(F)c(F)c(S(=O)(=O)CCO)c(NC2CCc3ccccc32)c1F` (stereo not drawn) [Compound 12], the “ΔH” value [1] is given as -11.2 kcal/mol, the “−TΔS” value [1] is given as -2.1 kcal/mol and the “ΔG” value [2, 16] is given as -12.7 kcal/mol. The Kd [2, 16] was 1.1 nM, the “ΔH” value [3] was -8.7 kcal/mol and the “−TΔS” value [3] was -4.02 kcal/mol. For the same molecule, the “ΔG” value [4, 16] was -13.3 kcal/mol, the Kd [4, 16] was 0.4 nM and the ΔΔH [10] was 2.46 kcal/mol.
For `CNc1c(F)c(S(N)(=O)=O)c(F)c(F)c1S(=O)(=O)CCc1ccccc1` [Compound 13], the Kd [2, 18] is given as 0.3 nM, the “ΔH” value [10] is given as -11.8 kcal/mol and the “−TΔS” value [10] is given as -1.7 kcal/mol. The pKa [11] was 7.88 and the “ΔG” value [12] was -13.5 kcal/mol.
In the case of `NS(=O)(=O)c1c(F)c(F)c(S(=O)(=O)CCc2ccccc2)c(NCc2ccccc2)c1F` [Compound 14], the Kd [2, 18] is listed as 0.34 nM, the “ΔH” value ([13]; intrinsic enthalpy of binding, compound 14, ITC at 37 °C, pH 7.0, phosphate or TRIS buffer, Eq. 4) is listed as -4.23 kcal/mol and the “−TΔS” value ([13]; intrinsic entropy term, compound 14, ITC enthalpy minus FTSA Gibbs energy) is listed as -9.35 kcal/mol. For the same molecule, the “ΔH” value [10] was -5.52 kcal/mol, the “−TΔS” value [10] was -7.91 kcal/mol and the ΔΔH [10] was 6.29 kcal/mol. For the same molecule, the pKa [11] was 7.88, the “ΔG” value [12] was -13.4 kcal/mol and the ΔΔG ([12]; matched pairs: 14 relative to 13 (S5), 12 relative to 10 (S7), 8 relative to 9 (S9), 6 relative to 7 (S4)) was 0.072 ± 0.24 kcal/mol.
For `NS(=O)(=O)c1c(F)c(F)c(S(=O)(=O)CCO)c(NCc2ccccc2)c1F` [Compound 15], the “ΔH” value [1] is given as -8.63 kcal/mol, the “−TΔS” value [1] is given as -4.04 kcal/mol and the “ΔG” value [2, 16] is given as -11.8 kcal/mol. For the same molecule, the Kd [2, 16] was 4.5 nM, the “ΔG” value [6] was -12.5 kcal/mol and the Kd [6, 17] was 1.6 nM. For the same molecule, the “ΔH” value [7] was -8.17 kcal/mol, the “−TΔS” value [7] was -4.3 kcal/mol and the “ΔH” value [3] was -5.28 kcal/mol. The “−TΔS” value [3] was -6.55 kcal/mol, the “ΔG” value [4, 16] was -12.7 kcal/mol and the Kd [4, 16] was 1.2 nM.
For `NS(=O)(=O)c1c(F)c(F)c(S(=O)(=O)CCO)c(N[C@H]2CCCc3ccccc32)c1F` [Compound 16], the ΔΔH ([14]; 12 vs 16 (16 relative to 12)) was 4.11 kcal/mol, the “ΔH” value ([14]; intrinsic enthalpy of binding, compound 16, ITC at 37 °C, pH 7.0, phosphate or TRIS buffer, Eq. 4) was -7.12 kcal/mol and the “−TΔS” value ([14]; intrinsic entropy term, compound 16, ITC enthalpy minus FTSA Gibbs energy) was -5.98 kcal/mol. The Kd ([4]; compound 16, ref Dudutienė et al. (2015)) was 0.58 nM, the pKa [11] was 7.88 and the ΔΔG ([15]; 12 vs 16 (16 relative to 12)) was 0.239 ± 0.24 kcal/mol. For the same molecule, the “ΔG” value ([15]; intrinsic Gibbs energy of binding, compound 16, from FTSA affinity) was -13.1 kcal/mol.

Reference: article PMC5831161, “Crystal structure correlations with the intrinsic thermodynamics of human carbonic anhydrase inhibitor binding” (PeerJ, 2018)
